Reference: patent US20250195513A1, “DEGRADATION OF IRAK4 BY CONJUGATION OF IRAK4 INHIBITORS WITH E3 LIGASE LIGAND AND METHODS OF USE” (BeiGene, Ltd., priority 2022, published 2025)
Where two headings read alike, the source gives them in different places.

Biological target: T1, IRAK4 (Homo sapiens, UniProt Q9NWZ3)
T1 construct: endogenous in cells; host or cells: Karpas299
T1 sequence (Q9NWZ3 1-460): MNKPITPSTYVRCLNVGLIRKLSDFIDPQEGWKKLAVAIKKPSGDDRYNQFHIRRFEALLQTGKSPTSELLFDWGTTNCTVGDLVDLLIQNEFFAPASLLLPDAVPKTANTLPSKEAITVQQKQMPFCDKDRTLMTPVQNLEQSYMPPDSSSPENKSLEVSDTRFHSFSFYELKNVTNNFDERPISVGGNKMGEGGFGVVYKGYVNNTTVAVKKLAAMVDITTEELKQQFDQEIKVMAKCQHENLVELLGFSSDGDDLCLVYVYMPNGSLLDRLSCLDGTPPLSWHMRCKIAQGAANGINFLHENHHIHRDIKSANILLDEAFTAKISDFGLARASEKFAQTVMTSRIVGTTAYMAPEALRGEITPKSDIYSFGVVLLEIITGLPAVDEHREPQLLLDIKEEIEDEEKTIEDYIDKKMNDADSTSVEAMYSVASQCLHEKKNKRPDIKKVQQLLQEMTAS
Assay: IRAK4 Degradation Assay (Karpas299, HTRF/TR-FRET)
Type: cell-based
Procedure, shortened: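 Compound potency as DC50 (IC50) came from four-parameter fits of percent IRAK4 degradation. IRAK4 was measured by HTRF (665/620 nm) in lysates of Karpas299 cells seeded at 0.2 million per well. Cells had been treated with compound dilutions for 5 or 24 h.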

[1] = Karpas-299 cells, 5 h treatment, maximum percentage of degradation, read-out: IRAK4 in Karpas-299 (5 h) Dmax (%)
[2] = Karpas-299 cells, 5 h treatment, read-out: IRAK4 in Karpas-299 (5 h) DC50
[3] = Karpas-299 cells, 24 h treatment, maximum percentage of degradation, read-out: IRAK4 in Karpas-299 (24 h) Dmax (%)
[4] = Karpas-299 cells, 24 h treatment, read-out: IRAK4 in Karpas-299 (24 h) DC50

SMILES	Dmax [1]	DC50 [2]	Dmax [3]	DC50 [4]	DC50 (Degradation (Karpas-299), comparison table, Linker Type B, read-out: Compound (Linker Type B) DC50)	Dmax (Degradation (Karpas-299), comparison table, Linker Type B, read-out: Compound (Linker Type B) Dmax (%))
CC(C)(O)c1cc2nn([C@H]3CC[C@H](N4CCN(C(=O)[C@@H]5CCN(c6cc(F)c([C@H]7CCC(=O)NC7=O)c(F)c6)C5)CC4)CC3)cc2cc1NC(=O)c1cccn(C2CC2)c1=O [Example 103, 1-cyclopropyl-N-(2-((1R,4r)-4-(4-((R)-1-(4-((R)-2,6-dioxopiperidin-3-yl)-3,5-difluorophenyl)pyrrolidine-3-carbonyl)piperazin-1-yl)cyclohexyl)-6-(2-hydroxypropan-2-yl)-2H-indazol-5-yl)-2-oxo-1,2-dihydropyridine-3-carboxamide]	–	–	90%	4.4 nM	–	–
CC(C)(O)c1cc2nn([C@H]3CC[C@H](N4CCN(C[C@H]5CCN(c6cc(F)c(N7CCC(=O)NC7=O)c(F)c6)C5)CC4)CC3)cc2cc1NC(=O)c1ccc2cc(C#N)cnn12 [Example 112, 3-cyano-N-(2-((1R,4r)-4-(4-(((R)-1-(4-(2,4-dioxotetrahydropyrimidin-1(2H)-yl)-3,5-difluorophenyl)pyrrolidin-3-yl)methyl)piperazin-1-yl)cyclohexyl)-6-(2-hydroxypropan-2-yl)-2H-indazol-5-yl)pyrrolo[1,2-b]pyridazine-7-carboxamide]	–	–	96%	8.6 nM	–	–
CC(C)(O)c1cc2nn([C@H]3CC[C@H](N4CCN(C(=O)[C@@H]5CCN(c6cc(F)c(N7CCC(=O)NC7=O)c(F)c6)C5)CC4)CC3)cc2cc1NC(=O)c1cccc(C(F)(F)F)n1 [Example 115, N-(2-((1R,4r)-4-(4-((R)-1-(4-(2,4-dioxotetrahydropyrimidin-1(2H)-yl)-3,5-difluorophenyl)pyrrolidine-3-carbonyl)piperazin-1-yl)cyclohexyl)-6-(2-hydroxypropan-2-yl)-2H-indazol-5-yl)-6-(trifluoromethyl)picolinamide]	–	–	96%	3.8 nM	–	–
CC(C)(O)c1cc2nn(C3CCN(C4CCN(C(=O)C5CN(c6cc(F)c([C@H]7CCC(=O)NC7=O)c(F)c6)C5)CC4)CC3)cc2cc1NC(=O)c1cccn(C2CC2)c1=O [Example 117, (R)-1-cyclopropyl-N-(2-(1′-(1-(4-(2,6-dioxopiperidin-3-yl)-3,5-difluorophenyl)azetidine-3-carbonyl)-[1,4′-bipiperidin]-4-yl)-6-(2-hydroxypropan-2-yl)-2H-indazol-5-yl)-2-oxo-1,2-dihydropyridine-3-carboxamide]	–	–	78%	4.2 nM	–	–
COc1cc2nn([C@H]3CC[C@H](N4CCN(CCc5cc(F)c([C@H]6CCC(=O)NC6=O)c(F)c5)CC4)CC3)cc2cc1NC(=O)c1cccc(C(F)(F)F)n1 [Example 120, N-(2-((1R,4r)-4-(4-(4-((R)-2,6-dioxopiperidin-3-yl)-3,5-difluorophenethyl)piperazin-1-yl)cyclohexyl)-6-methoxy-2H-indazol-5-yl)-6-(trifluoromethyl)picolinamide]	–	–	99%	4.2 nM	–	–
CC(C)(O)c1cc2nc(C3CCN(C4CCN(C(=O)[C@H]5CCN(c6ccc(N7CCC(=O)NC7=O)cc6)C5)CC4)CC3)cn2cc1NC(=O)c1cccc(C(F)(F)F)n1 [Example 128, (S)—N-(2-(1′-(1-(4-(2,4-dioxotetrahydropyrimidin-1(2H)-yl)phenyl)pyrrolidine-3-carbonyl)-[1,4′-bipiperidin]-4-yl)-7-(2-hydroxypropan-2-yl)imidazo[1,2-a]pyridin-6-yl)-6-(trifluoromethyl)picolinamide]	90%	41 nM	100%	7.2 nM	–	–
CC(C)(O)c1cc2nn(C3CCN(C4CCN(C(=O)[C@@H]5CCN(c6ccc(N7CCC(=O)NC7=O)cc6)C5)CC4)CC3)cc2cc1NC(=O)c1cccc(C(F)(F)F)n1 [Example 162, (R)—N-(2-(1′-(1-(4-(2,4-dioxotetrahydropyrimidin-1(2H)-yl)phenyl)pyrrolidine-3-carbonyl)-[1,4′-bipiperidin]-4-yl)-6-(2-hydroxypropan-2-yl)-2H-indazol-5-yl)-6-(trifluoromethyl)picolinamide]	–	–	96%	5.7 nM	–	–
CC(C)(O)c1cc2nn(C3CCN(C4CCN(C(=O)[C@H]5CCN(c6ccc(N7CCC(=O)NC7=O)cc6)C5)CC4)CC3)cc2cc1NC(=O)c1cccc(C(F)(F)F)n1 [Example 163, (S)—N-(2-(1′-(1-(4-(2,4-dioxotetrahydropyrimidin-1(2H)-yl)phenyl)pyrrolidine-3-carbonyl)-[1,4′-bipiperidin]-4-yl)-6-(2-hydroxypropan-2-yl)-2H-indazol-5-yl)-6-(trifluoromethyl)picolinamide]	–	–	95%	3.8 nM	–	–

Compounds with a lower DC50 [4], results first:

Dmax [1]	DC50 [2]	Dmax [3]	DC50 [4]	DC50 (Degradation (Karpas-299), comparison table, Linker Type B, read-out: Compound (Linker Type B) DC50)	Dmax (Degradation (Karpas-299), comparison table, Linker Type B, read-out: Compound (Linker Type B) Dmax (%))	SMILES
61%	12 nM	94%	2 nM	–	–	CC(C)(O)c1cc2nn([C@H]3CC[C@H](N4CCN(C(=O)C5CN(c6cc(F)c([C@H]7CCC(=O)NC7=O)c(F)c6)C5)CC4)CC3)cc2cc1NC(=O)c1cccn(C2CC2)c1=O [Example 102, 1-cyclopropyl-N-(2-((1r,4r)-4-(4-(1-(4-((R)-2,6-dioxopiperidin-3-yl)-3,5-difluorophenyl)azetidine-3-carbonyl)piperazin-1-yl)cyclohexyl)-6-(2-hydroxypropan-2-yl)-2H-indazol-5-yl)-2-oxo-1,2-dihydropyridine-3-carboxamide]
–	–	85%	2.8 nM	–	–	CC(C)(O)c1cc2nn(C3CCN(C4CCN(C(=O)[C@@H]5CCN(c6cc(F)c([C@H]7CCC(=O)NC7=O)c(F)c6)C5)CC4)CC3)cc2cc1NC(=O)c1cccn(C2CC2)c1=O [Example 118, 1-cyclopropyl-N-(2-(1′-((R)-1-(4-((R)-2,6-dioxopiperidin-3-yl)-3,5-difluorophenyl)pyrrolidine-3-carbonyl)-[1,4′-bipiperidin]-4-yl)-6-(2-hydroxypropan-2-yl)-2H-indazol-5-yl)-2-oxo-1,2-dihydropyridine-3-carboxamide]
94%	12 nM	102%	1.3 nM	–	–	CC(C)(O)c1cc2nc(C3CCN(C4CCN(C(=O)[C@@H]5CCN(c6cc(F)c([C@H]7CCC(=O)NC7=O)c(F)c6)C5)CC4)CC3)cn2cc1NC(=O)c1cccc(C(F)(F)F)n1 [Example 127, N-(2-(1′-((R)-1-(4-((R)-2,6-dioxopiperidin-3-yl)-3,5-difluorophenyl)pyrrolidine-3-carbonyl)-[1,4′-bipiperidin]-4-yl)-7-(2-hydroxypropan-2-yl)imidazo[1,2-a]pyridin-6-yl)-6-(trifluoromethyl)picolinamide]
–	–	99%	1.9 nM	–	–	O=C1CC[C@H](c2c(F)cc(N3CC[C@@H](C(=O)N4CCN([C@H]5CC[C@H](n6cc7cc(NC(=O)c8cccc(C(F)(F)F)n8)c(C(=O)NC8CC8)cc7n6)CC5)CC4)C3)cc2F)C(=O)N1 [Example 129, N-cyclopropyl-2-((1R,4r)-4-(4-((R)-1-(4-((R)-2,6-dioxopiperidin-3-yl)-3,5-difluorophenyl)pyrrolidine-3-carbonyl)piperazin-1-yl)cyclohexyl)-5-(6-(trifluoromethyl)picolinamido)-2H-indazole-6-carboxamide]
–	–	98%	0.5 nM	–	–	O=C1CC[C@H](c2c(F)cc(N3CC(C(=O)N4CCN([C@H]5CC[C@H](n6cc7cc(NC(=O)c8cccc(C(F)(F)F)n8)c(C(=O)NC8CC8)cc7n6)CC5)CC4)C3)cc2F)C(=O)N1 [Example 130]
–	–	97%	0.3 nM	–	–	CC(C)(O)c1cc2nn(C34CCC(N5CCN(C(=O)C6CN(c7cc(F)c([C@H]8CCC(=O)NC8=O)c(F)c7)C6)CC5)(CC3)CC4)cc2cc1NC(=O)c1ccc2cc(C#N)cnn12 [Example 149, (R)-3-cyano-N-(2-(4-(4-(1-(4-(2,6-dioxopiperidin-3-yl)-3,5-difluorophenyl)azetidine-3-carbonyl)piperazin-1-yl)bicyclo[2.2.2]octan-1-yl)-6-(2-hydroxypropan-2-yl)-2H-indazol-5-yl)pyrrolo[1,2-b]pyridazine-7-carboxamide]
90%	4 nM	99%	0.4 nM	–	–	CC(C)(O)c1cc2nn(C3CCN(C4CCN(C(=O)C5CN(c6cc(F)c([C@H]7CCC(=O)NC7=O)c(F)c6)C5)CC4)CC3)cc2cc1NC(=O)c1cccc(C(F)(F)F)n1 [Example 160, (R)—N-(2-(1′-(1-(4-(2,6-dioxopiperidin-3-yl)-3,5-difluorophenyl)azetidine-3-carbonyl)-[1,4′-bipiperidin]-4-yl)-6-(2-hydroxypropan-2-yl)-2H-indazol-5-yl)-6-(trifluoromethyl)picolinamide]
–	–	97%	2 nM	2 nM	97%	COc1cc2nn([C@H]3CC[C@H](N4CCN(C(=O)[C@@H]5CCN(c6ccc(N7CCC(=O)NC7=O)cc6)C5)CC4)CC3)cc2cc1NC(=O)c1cccc(C(F)(F)F)n1 [Example 164, N-(2-((1R,4r)-4-(4-((R)-1-(4-(2,4-dioxotetrahydropyrimidin-1(2H)-yl)phenyl)pyrrolidine-3-carbonyl)piperazin-1-yl)cyclohexyl)-6-methoxy-2H-indazol-5-yl)-6-(trifluoromethyl)picolinamide]
